Results as given in patent US12139729B2, “Neurodegenerative disorders” (priority 2013, dated 2024).
Residues, ends and D or L forms follow the SMILES beside them.

Key:
[1] = biological target: T1, acetylcholinesterase (AChE) (Rattus norvegicus, UniProt P37136); test: Acetylcholinesterase enzymatic activity assay (Ellman reagent); assay type: biochemical
T1 construct: endogenous in cells; host or cells: PC12 cells (released enzyme in the supernatant)
T1 sequence (P37136 32-614): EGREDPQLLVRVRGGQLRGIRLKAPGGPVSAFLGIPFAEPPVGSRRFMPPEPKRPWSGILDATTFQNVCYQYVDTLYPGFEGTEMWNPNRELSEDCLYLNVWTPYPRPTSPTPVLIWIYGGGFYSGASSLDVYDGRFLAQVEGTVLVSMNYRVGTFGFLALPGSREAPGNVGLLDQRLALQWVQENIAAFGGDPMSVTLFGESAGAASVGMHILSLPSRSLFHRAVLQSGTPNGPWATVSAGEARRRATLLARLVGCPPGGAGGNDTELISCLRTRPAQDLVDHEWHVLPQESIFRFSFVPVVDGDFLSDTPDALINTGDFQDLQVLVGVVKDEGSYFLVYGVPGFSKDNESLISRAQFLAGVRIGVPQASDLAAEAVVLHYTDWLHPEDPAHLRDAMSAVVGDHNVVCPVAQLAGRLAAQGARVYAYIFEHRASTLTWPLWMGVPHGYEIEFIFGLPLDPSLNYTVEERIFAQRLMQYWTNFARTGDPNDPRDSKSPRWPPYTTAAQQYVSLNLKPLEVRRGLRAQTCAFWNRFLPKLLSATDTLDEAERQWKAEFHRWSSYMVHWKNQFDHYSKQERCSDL
Experimental: AChE activity was measured using the Ellman reagent that measures the presence of thiol groups as a result of AChE activity. Cells were plated the day before the experiment as for the cell viability assay. Cells were treated with different concentrations of Cyclic T14 (0.1-100 μM) and T30, T14 and Aβ 10 μM alone or combined with Cyclic T14 (0.1 and 0.7 μM). […] The Ellman reagent was prepared as a mixture of the 3 solutions in a ratio 33(A):3(B):4(C). Absorbance measurements were taken at regular intervals (3, 10, 30 and 60 mins) across experiments at 405 nm.
The inventor next decided to confirm whether or not Cyclic T14 affects the enzymatic activity of acetylcholinesterase (AChE). AChE enzymatic activity was measured using the acetylcholinesterase activity assay.

[2] = Partition coefficient (Log P), shake-tube method, 1-octanol/water; assay type: physicochemical; conditions: room temperature
Experimental: Saturation of the solvents was performed as follows. 1-octanol was agitated in the presence of water for 24 h at room temperature. mQ water was agitated in presence of 1-octanol for 24 h at room temperature. Then the solutions were left to equilibrate overnight at room temperature. Saturated solvents were collected, using syringes and needles, and stored at room temperature until further use.
Saturated water and saturated i-octanol were placed in a glass tube in the following ratios: Each tube contained the equivalent of 0.25 mg of cyclic T14. All tubes were then mixed for 4 h at room temperature. After agitation the tubes were left at room temperature to equilibrate.
The concentrations of cyclic T14 used for the standard curve were: 0.5 mg·ml^−1, 0.25 mg·ml^−1, 0.13 mg·ml^−1, 0.066 mg·ml^−1, 0.033 mg·ml^−1 and 0.016 mg/ml^−1. The absorbance of the standard curve was measured at 280 nm.
Both fractions of each sample were collected separately using a syringe with needle. The absorbance of all fractions was measured at 280 nm and the concentration of all the fraction was estimated based on the standard curve. The partition coefficient of cyclic T14 was calculated using the following equation: Log P=Log (Concentration in Octanol/Concentration in Water)
The results from each condition were averaged in order to obtain the Log P of cyclic T14.

rat brain slices = test: Calcium fluorometry (Fluo-4) in brain slices; assay type: cell-based; conditions: two hours
Experimental: Increases in intracellular Ca^2+ were monitored by measuring changes in fluorescence in cells loaded with Fluo-4 (Life Technologies Corporation, UK). […] After the 2 hours, slices were incubated in the dark for 40 minutes at room temperature with 1.2 ml/well of loading medium that contained: Tyrode's salt solution (TSS; 137 mM NaCl, 2.7 mM KCl, 1.0 mM MgCl2, 2.5 mM CaCl2, 0.2 mM NaH2PO4, 12.0 NaHCO3, 5.5 glucose, pH 7.4), Fluo-4 (2 μM), Pluronic F127 (0.02%) and probenecid (2 mM). Probenecid is a blocker of the multidrug resistant protein, an ion transporter, and avoids the excretion of the fluorescent molecule from the cell. After incubation, slices were washed with TSS and 1200 μl/well of de-esterification medium, containing TSS and probenecid, were added. Slices were incubated in the dark for 20 minutes at 22° C. Fluorescence measurements (excitation 485 nm, emission 538 nm) were recorded in a Fluostar Optima (BMG, UK) plate reader.

CSCC[C@@H]1NC(=O)[C@H](Cc2ccc(O)cc2)NC(=O)[C@H](CO)NC(=O)[C@H](CO)NC(=O)[C@H](Cc2c[nH]c3ccccc23)NC(=O)[C@H](CCCNC(=N)N)NC(=O)[C@H](Cc2c[nH]cn2)NC(=O)[C@H](Cc2ccccc2)NC(=O)[C@H](CCC(=O)O)NC(=O)[C@H](C)NC(=O)[C@H](CCCCN)NC(=O)[C@H](Cc2c[nH]c3ccccc23)NC(=O)[C@H](Cc2c[nH]cn2)NC(=O)[C@H](C(C)C)NC1=O [Cyclic T14] (cyclo(AEFHRWSSYMVHWK))
effect on enzyme activity of acetylcholinesterase ([1]; 2 μM): did not affect
effect on AChE activity (Table 3 feature) ([1]; ✓ = Dream Drug feature 'Does not affect AChE activity'): ✓
logP [2]: -0.59
intracellular calcium level raised by β-Amyloid, combined with Cyclic T14 (rat brain slices; Cyclic T14 1 μM + β-Amyloid 10 μM): returned to baseline
intracellular calcium level, compound alone (rat brain slices; Cyclic T14 1 μM): does not change the basal level
